Test results taken from ChEMBL document CHEMBL3044915, “Synthesis and Insecticidal Activity of N-(4-Aryloxybenzyl)-pyrazolecarboxamide Derivatives” (1996).

Tests used:
Assay type in all cases: functional
Nephotettix cincticeps [1] = assay: Insecticidal activity against green rice Nephotettix cincticeps (green rice leafhopper) third-instar larvae assessed as mortality at 0.8 ppm applied through spray measured after 4 days; conditions: for mortality at 0.8 ppm: Nephotettix cincticeps, 96 h
Nephotettix cincticeps [2] = assay: Insecticidal activity against green rice Nephotettix cincticeps (green rice leafhopper) third-instar larvae assessed as mortality at 3.1 ppm applied through spray measured after 4 days; conditions: for mortality at 3.1 ppm: Nephotettix cincticeps, 96 h
Nephotettix cincticeps [3] = assay: Insecticidal activity against green rice Nephotettix cincticeps (green rice leafhopper) third-instar larvae assessed as mortality at 12.5 ppm applied through spray measured after 4 days; conditions: 96 h
Nephotettix cincticeps [4] = assay: Insecticidal activity against green rice Nephotettix cincticeps (green rice leafhopper) third-instar larvae assessed as mortality at 50 ppm applied through spray measured after 4 days; conditions: 96 h
Tetranychus urticae [5] = assay: Insecticidal activity against Tetranychus urticae (two-spotted spider mite) assessed as mortality at 3.1 ppm
Tetranychus urticae [6] = assay: Insecticidal activity against Tetranychus urticae (two-spotted spider mite) assessed as mortality at 12.5 ppm
Plutella xylostella [7] = assay: Insecticidal activity against Plutella xylostella (diamondback moth) third-instar larvae in compound treated cabbage leaf assessed as mortality at 12.5 ppm measured after 4 days; conditions: 96 h
Myzus persicae [8] = assay: Insecticidal activity against Myzus persicae (green peach aphid) assessed as mortality at 12.5 ppm measured after 4 days; conditions: 96 h
Nilaparvata lugens [9] = assay: Insecticidal activity against Nilaparvata lugens (brown planthopper) third-instar larvae assessed as mortality at 12.5 ppm applied through spray measured after 5 days; conditions: 120 h
Plutella xylostella [10] = assay: Insecticidal activity against Plutella xylostella (diamondback moth) third-instar larvae in compound treated cabbage leaf assessed as mortality at 0.8 ppm measured after 4 days; conditions: 96 h
Plutella xylostella [11] = assay: Insecticidal activity against Plutella xylostella (diamondback moth) third-instar larvae in compound treated cabbage leaf assessed as mortality at 3.1 ppm measured after 4 days; conditions: 96 h
Myzus persicae [12] = assay: Insecticidal activity against Myzus persicae (green peach aphid) assessed as mortality at 0.8 ppm measured after 4 days; conditions: 96 h
Myzus persicae [13] = assay: Insecticidal activity against Myzus persicae (green peach aphid) assessed as mortality at 3.1 ppm measured after 4 days; conditions: 96 h
Nilaparvata lugens [14] = assay: Insecticidal activity against Nilaparvata lugens (brown planthopper) third-instar larvae assessed as mortality at 0.8 ppm applied through spray measured after 5 days; conditions: 120 h
Nilaparvata lugens [15] = assay: Insecticidal activity against Nilaparvata lugens (brown planthopper) third-instar larvae assessed as mortality at 3.1 ppm applied through spray measured after 5 days; conditions: 120 h

Row | Structure (SMILES) | mortality at 3.1 ppm (Nephotettix cincticeps [2]) | mortality at 12.5 ppm (Nephotettix cincticeps [3]) | mortality at 50 ppm (Nephotettix cincticeps [4]) | other results
1 | Cc1nn(C)c(C(=O)NCc2ccc(Oc3ccc(C(F)(F)F)cc3)cc2)c1Cl | 80% | 80% | 100% | mortality at 0.8 ppm (Nephotettix cincticeps [1]): 30%
2 | CC1CCc2c1nn(C)c2C(=O)NCc1ccc(C(C)(C)C)cc1 (centres undefined) | – | 30% | – | mortality at 3.1 ppm (Tetranychus urticae [5]): 100%; mortality at 12.5 ppm (Tetranychus urticae [6]): 100%; mortality at 12.5 ppm (Plutella xylostella [7]): 0%; mortality at 12.5 ppm (Myzus persicae [8]): 0%; mortality at 12.5 ppm (Nilaparvata lugens [9]): 0%
3 | CC1CCc2c1nn(C)c2C(=O)NCc1ccc(Oc2ccc([N+](=O)[O-])cc2)cc1 (centres undefined) | 100% | 100% | – | mortality at 3.1 ppm (Tetranychus urticae [5]): 30%; mortality at 12.5 ppm (Tetranychus urticae [6]): 80%; mortality at 0.8 ppm (Plutella xylostella [10]): 0%; mortality at 3.1 ppm (Plutella xylostella [11]): 100%; mortality at 12.5 ppm (Plutella xylostella [7]): 100%; mortality at 0.8 ppm (Myzus persicae [12]): 30%; mortality at 3.1 ppm (Myzus persicae [13]): 100%; mortality at 12.5 ppm (Myzus persicae [8]): 100%; mortality at 0.8 ppm (Nilaparvata lugens [14]): 0%; mortality at 3.1 ppm (Nilaparvata lugens [15]): 80%; mortality at 12.5 ppm (Nilaparvata lugens [9]): 80%; mortality at 0.8 ppm (Nephotettix cincticeps [1]): 30%
4 | CC1CCc2c1nn(C)c2C(=O)NCc1ccc(Oc2ccc(C#N)cc2)cc1 (centres undefined) | 0% | 30% | – | mortality at 3.1 ppm (Tetranychus urticae [5]): 100%; mortality at 12.5 ppm (Tetranychus urticae [6]): 100%; mortality at 0.8 ppm (Plutella xylostella [10]): 30%; mortality at 3.1 ppm (Plutella xylostella [11]): 100%; mortality at 12.5 ppm (Plutella xylostella [7]): 100%; mortality at 0.8 ppm (Myzus persicae [12]): 0%; mortality at 3.1 ppm (Myzus persicae [13]): 80%; mortality at 12.5 ppm (Myzus persicae [8]): 100%; mortality at 0.8 ppm (Nilaparvata lugens [14]): 80%; mortality at 3.1 ppm (Nilaparvata lugens [15]): 80%; mortality at 12.5 ppm (Nilaparvata lugens [9]): 100%
5 | CSc1ccc(Oc2ccc(CNC(=O)c3c4c(nn3C)C(C)CC4)cc2)cc1 (centres undefined) | 80% | 100% | – | mortality at 3.1 ppm (Tetranychus urticae [5]): 80%; mortality at 12.5 ppm (Tetranychus urticae [6]): 100%; mortality at 0.8 ppm (Plutella xylostella [10]): 0%; mortality at 3.1 ppm (Plutella xylostella [11]): 80%; mortality at 12.5 ppm (Plutella xylostella [7]): 100%; mortality at 0.8 ppm (Myzus persicae [12]): 0%; mortality at 3.1 ppm (Myzus persicae [13]): 100%; mortality at 12.5 ppm (Myzus persicae [8]): 100%; mortality at 0.8 ppm (Nilaparvata lugens [14]): 30%; mortality at 3.1 ppm (Nilaparvata lugens [15]): 30%; mortality at 12.5 ppm (Nilaparvata lugens [9]): 80%; mortality at 0.8 ppm (Nephotettix cincticeps [1]): 30%
6 | CC1CCc2c1nn(C)c2C(=O)NC(C)(C)c1ccc(Oc2ccc(C(F)(F)F)cc2)cc1 (centres undefined) | – | – | 0% | –
7 | CC(C)c1nn(C)c(C(=O)NCc2ccc(Oc3ccc(C(F)(F)F)cc3)cc2)c1Cl | 30% | 80% | 80% | –
8 | Cn1nc2c(c1C(=O)NCc1ccc(Oc3ccc(C(F)(F)F)cc3)cc1)CCC2 | 100% | 100% | 100% | mortality at 0.8 ppm (Nephotettix cincticeps [1]): 0%
9 | CCC1CCc2c1nn(C)c2C(=O)NCc1ccc(Oc2ccc(C(F)(F)F)cc2)cc1 (centres undefined) | 30% | 100% | 100% | mortality at 0.8 ppm (Nephotettix cincticeps [1]): 0%
10 | Cn1nc2c(c1C(=O)NCc1ccc(Oc3ccc(C(F)(F)F)cc3)cc1)CCCC2 | 80% | 80% | 100% | mortality at 0.8 ppm (Nephotettix cincticeps [1]): 0%
11 | CC1CCCc2c1nn(C)c2C(=O)NCc1ccc(Oc2ccc(C(F)(F)F)cc2)cc1 (centres undefined) | 0% | 100% | 100% | mortality at 0.8 ppm (Nephotettix cincticeps [1]): 0%
12 | CCc1nn(C)c(C(=O)NCc2ccc(Oc3ccc(C(F)(F)F)cc3)cc2)c1Br | 30% | 100% | 100% | mortality at 0.8 ppm (Nephotettix cincticeps [1]): 30%
13 | CCc1nn(C)c(C(=O)NCc2ccc(Oc3ccc(C(F)(F)F)cc3)cc2)c1F | 30% | 100% | 100% | mortality at 0.8 ppm (Nephotettix cincticeps [1]): 0%
14 | CCc1cc(C(=O)NCc2ccc(Oc3ccc(C(F)(F)F)cc3)cc2)n(C)n1 | 30% | 100% | 100% | –
15 | Cn1ncc(Cl)c1C(=O)NCc1ccc(Oc2ccc(C(F)(F)F)cc2)cc1 | 30% | 80% | 100% | –
16 | CCc1nn(C)c(C(=O)NCc2ccc(Oc3ccc([N+](=O)[O-])cc3)cc2)c1Cl | 100% | 100% | 100% | –
17 | CCc1nn(C)c(C(=O)NCc2ccc(Oc3ccc(C#N)cc3)cc2)c1Cl | 0% | 100% | 100% | –
18 | CCc1nn(C)c(C(=O)NCc2ccc(Oc3ccc(C(F)(F)F)cc3)cc2)c1Cl | 30% | 100% | 100% | –
19 | CCc1nn(C)c(C(=O)NCc2ccc(Oc3ccc(C(F)F)cc3)cc2)c1Cl | 100% | 100% | 100% | –
20 | CCc1nn(C)c(C(=O)NCc2ccc(Oc3ccc(S(C)(=O)=O)cc3)cc2)c1Cl | 30% | 100% | 100% | –

Row | Structure (SMILES) | mortality at 3.1 ppm (Nephotettix cincticeps [2]) | mortality at 12.5 ppm (Nephotettix cincticeps [3]) | mortality at 50 ppm (Nephotettix cincticeps [4]) | other results
21 | CCc1nn(C)c(C(=O)NCc2ccc(Oc3ccc([S+](C)[O-])cc3)cc2)c1Cl (centres undefined) | 30% | 100% | 100% | –
22 | CCc1nn(C)c(C(=O)NCc2ccc(Oc3ccc(SC(C)C)cc3)cc2)c1Cl | 30% | 30% | 100% | –
23 | CCSc1ccc(Oc2ccc(CNC(=O)c3c(Cl)c(CC)nn3C)cc2)cc1 | 30% | 80% | 100% | –
24 | CCc1nn(C)c(C(=O)NCc2ccc(Oc3ccc(SC)cc3)cc2)c1Cl | 80% | 100% | 100% | –
25 | CCc1nn(C)c(C(=O)NCc2ccc(Oc3ccc(Cl)cc3)cc2)c1Cl | 80% | 80% | 100% | –
26 | CCc1nn(C)c(C(=O)NCc2ccc(Oc3ccc(OCC(F)(F)F)cc3)cc2)c1Cl | – | 30% | 100% | –
27 | CCc1nn(C)c(C(=O)NCc2ccc(Oc3ccc(OC(F)F)cc3)cc2)c1Cl | 80% | 100% | 100% | –
28 | CCc1nn(C)c(C(=O)NCc2ccc(Oc3ccc(OC)cc3)cc2)c1Cl | 30% | 100% | 100% | –
29 | CCc1nn(C)c(C(=O)NCc2ccc(Oc3ccc(OC(C)C)cc3)cc2)c1Cl | 0% | 30% | 80% | –
30 | CCc1nn(C)c(C(=O)NCc2ccc(Oc3ccc(CC(C)C)cc3)cc2)c1Cl | – | – | 0% | –
31 | CCc1ccc(Oc2ccc(CNC(=O)c3c(Cl)c(CC)nn3C)cc2)cc1 | 30% | 80% | 100% | –
32 | CCc1nn(C)c(C(=O)NCc2ccc(Oc3ccc(C(C)C)cc3)cc2)c1Cl | – | 30% | 80% | –
33 | CCc1nn(C)c(C(=O)NCc2ccc(Oc3ccccc3)cc2)c1Cl | – | 30% | 100% | –
34 | CC1CCc2c1nn(C)c2C(=O)NCc1ccc(Oc2ccc(C(F)(F)F)cc2)cc1 (racemic) | – | – | – | mortality at 3.1 ppm (Tetranychus urticae [5]): 100%; mortality at 12.5 ppm (Tetranychus urticae [6]): 100%; mortality at 0.8 ppm (Plutella xylostella [10]): 0%; mortality at 3.1 ppm (Plutella xylostella [11]): 80%; mortality at 12.5 ppm (Plutella xylostella [7]): 100%; mortality at 0.8 ppm (Myzus persicae [12]): 100%; mortality at 3.1 ppm (Myzus persicae [13]): 100%; mortality at 12.5 ppm (Myzus persicae [8]): 100%; mortality at 0.8 ppm (Nilaparvata lugens [14]): 100%; mortality at 3.1 ppm (Nilaparvata lugens [15]): 100%; mortality at 12.5 ppm (Nilaparvata lugens [9]): 100%; mortality (Nephotettix cincticeps [1]): 30%
35 | CC1CCc2c1nn(C)c2C(=O)NCc1ccc(Oc2ccc(C(F)(F)F)cc2)cc1 (single isomer, unassigned; (+)) | – | – | – | mortality (Nephotettix cincticeps [2]): 30%
36 | CC1CCc2c1nn(C)c2C(=O)NCc1ccc(Oc2ccc(C(F)(F)F)cc2)cc1 (single isomer, unassigned; (-)) | – | 100% | 100% | mortality (Nephotettix cincticeps [1]): 80%; mortality (Nephotettix cincticeps [2]): 100%
37 | CC1CCc2c1nn(C)c2C(=O)NC(C)c1ccc(Oc2ccc(C(F)(F)F)cc2)cc1 (single isomer, unassigned; diastereomer 2) | 80% | 100% | 100% | mortality at 0.8 ppm (Nephotettix cincticeps [1]): 0%
38 | CCc1nn(C)c(C(=O)NCc2ccc(C(C)(C)C)cc2)c1Cl [TEBUFENPYRAD] | – | 0% | – | mortality at 3.1 ppm (Tetranychus urticae [5]): 100%; mortality at 12.5 ppm (Tetranychus urticae [6]): 100%; mortality at 12.5 ppm (Plutella xylostella [7]): 0%; mortality at 12.5 ppm (Myzus persicae [8]): 30%; mortality at 12.5 ppm (Nilaparvata lugens [9]): 0%
39 | CCc1nn(C)c(C(=O)NCc2ccc(Oc3ccc(C)cc3)cc2)c1Cl [TOLFENPYRAD] | 30% | 100% | 100% | –
